How the values were obtained:
Assay in all cases: KiNativ profiling in human PBMCs
Assay type in all cases: binding
Wnk1,Wnk2,Wnk3 = conditions: Lys2
Outline: (§1)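 Live human peripheral blood mononuclear cells were treated with compound at 1 µM and 0.1 µM, then kinase engagement was profiled by the KiNativ procedure.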

PRPK = system: T1, PRPK; conditions: ATP Loop
T1 construct: purchased ActivX Technologies (KiNativ)
Outline: as §1

RSK2 domain1 = system: T2, RSK2 domain1
T2 construct: RSK2 domain1; purchased ActivX Technologies (KiNativ)
Outline: as §1

MAP3K1 = system: T3, MAP3K1; conditions: Lys2
T3 construct: purchased ActivX Technologies (KiNativ)
Outline: as §1

Erk1 = system: T4, Erk1; conditions: Lys2
T4 construct: purchased ActivX Technologies (KiNativ)
Outline: as §1

p70S6K,p70S6Kb = conditions: ATP Loop
Outline: as §1

PFTAIRE1 = system: T5, PFTAIRE1
T5 construct: purchased ActivX Technologies (KiNativ)
Outline: as §1

IKKa = system: T6, IKKa; conditions: Lys2
T6 construct: purchased ActivX Technologies (KiNativ)
Outline: as §1

LYN = system: T7, LYN
T7 construct: purchased ActivX Technologies (KiNativ)
Outline: as §1

CDC2 = system: T8, CDC2; conditions: Lys2
T8 construct: purchased ActivX Technologies (KiNativ)
Outline: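 Target engagement in cells was measured using KiNativ chemistry following treatment of live human PBMCs with each compound at concentrations of 1 µM and 0.1 µM.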

SYK = system: T9, SYK
T9 construct: purchased ActivX Technologies (KiNativ)
Outline: as §1

MAP3K15,MAP3K5,MAP3K6 = conditions: Lys1
Outline: as §1

DGKA = system: T10, DGKA; conditions: ATP
T10 construct: purchased ActivX Technologies (KiNativ)
Outline: as §1

HPK1 = system: T11, HPK1
T11 construct: purchased ActivX Technologies (KiNativ)
Outline: as §1

PIP4K2A = system: T12, PIP4K2A; conditions: ATP
T12 construct: purchased ActivX Technologies (KiNativ)
Outline: as §1

Erk2 = system: T13, Erk2; conditions: Lys2
T13 construct: purchased ActivX Technologies (KiNativ)
Outline: as §1

IRAK1 = system: T14, IRAK1; conditions: Lys2
T14 construct: purchased ActivX Technologies (KiNativ)
Outline: as §1

NEK6,NEK7 = conditions: Lys2
Outline: as §1

TAK1 = system: T15, TAK1; conditions: Lys2
T15 construct: purchased ActivX Technologies (KiNativ)
Outline: as §1

ILK = system: T16, ILK
T16 construct: purchased ActivX Technologies (KiNativ)
Outline: as §1

LATS1 = system: T17, LATS1
T17 construct: purchased ActivX Technologies (KiNativ)
Outline: as §1

CDK11,CDK8 = conditions: Lys2
Outline: as §1

GCK = system: T18, GCK
T18 construct: purchased ActivX Technologies (KiNativ)
Outline: as §1

MAP3K2 = system: T19, MAP3K2; conditions: Lys1
T19 construct: purchased ActivX Technologies (KiNativ)
Outline: as §1

LCK = system: T20, LCK; conditions: Activation Loop
T20 construct: purchased ActivX Technologies (KiNativ)
Outline: as §1

FYN,SRC,YES = conditions: Activation Loop
Outline: as §1

MST2 = system: T21, MST2; conditions: Lys1
T21 construct: purchased ActivX Technologies (KiNativ)
Outline: as §1

NDR1 = system: T22, NDR1
T22 construct: purchased ActivX Technologies (KiNativ)
Outline: as §1

ABL,ARG = system: ABL,ARG
Outline: as §1

NEK7 = system: T23, NEK7; conditions: Lys1
T23 construct: purchased ActivX Technologies (KiNativ)
Outline: as §1

GCN2 = system: T24, GCN2
T24 construct: purchased ActivX Technologies (KiNativ)
Outline: as §1

PIP4K2C = system: T25, PIP4K2C; conditions: ATP
T25 construct: purchased ActivX Technologies (KiNativ)
Outline: as §1

SNRK = system: T26, SNRK
T26 construct: purchased ActivX Technologies (KiNativ)
Outline: as §1

smMLCK = system: T27, smMLCK
T27 construct: purchased ActivX Technologies (KiNativ)
Outline: as §1

MST1 = system: T28, MST1; conditions: Lys1
T28 construct: purchased ActivX Technologies (KiNativ)
Outline: as §1

Compound: Cn1cc(-c2c[nH]c3ncnc(N4CCOCC4)c23)cc1C#N [PFE-360]
- % Inhibition (Wnk1,Wnk2,Wnk3; 0.1µM): 11.3%
- % Inhibition (Wnk1,Wnk2,Wnk3; 1µM): 1.3%
- % Inhibition (PRPK; 0.1µM): 2.6%
- % Inhibition (PRPK; 1µM): 8.1%
- % Inhibition (RSK2 domain1; 0.1µM, ATP Loop): 13.2%
- % Inhibition (RSK2 domain1; 0.1µM, Activation Loop): 9.2%
- % Inhibition (RSK2 domain1; 0.1µM, Lys2): -0.1%
- % Inhibition (RSK2 domain1; 1µM, ATP Loop): 21.8%
- % Inhibition (RSK2 domain1; 1µM, Activation Loop): 20.3%
- % Inhibition (RSK2 domain1; 1µM, Lys2): 22.9%
- % Inhibition (MAP3K1; 0.1µM): 7%
- % Inhibition (MAP3K1; 1µM): -26.4%
- % Inhibition (Erk1; 0.1µM): 7.7%
- % Inhibition (Erk1; 1µM): 3.7%
- % Inhibition (p70S6K,p70S6Kb; 0.1µM): -0.2%
- % Inhibition (p70S6K,p70S6Kb; 1µM): 13.2%
- % Inhibition (PFTAIRE1; 0.1µM, Lys1): 1.9%
- % Inhibition (PFTAIRE1; 0.1µM, Lys2): -4%
- % Inhibition (PFTAIRE1; 1µM, Lys1): -2%
- % Inhibition (PFTAIRE1; 1µM, Lys2): -1.5%
- % Inhibition (IKKa; 0.1µM): 17.9%
- % Inhibition (IKKa; 1µM): 15.8%
- % Inhibition (LYN; 0.1µM, Activation Loop): 7.3%
- % Inhibition (LYN; 0.1µM, Lys1): -30.4%
- % Inhibition (LYN; 1µM, Activation Loop): 7.8%
- % Inhibition (LYN; 1µM, Lys1): 7.4%
- % Inhibition (CDC2; 0.1µM, peptide DLKPQNLLIDDK): -1.5%
- % Inhibition (CDC2; 0.1µM, peptide DLKPQNLLIDDKGTIK): -4.2%
- % Inhibition (CDC2; 1µM, peptide DLKPQNLLIDDK): 4.1%
- % Inhibition (SYK; 0.1µM, Activation Loop): 1.9%
- % Inhibition (SYK; 0.1µM, Lys1): 0.1%
- % Inhibition (SYK; 1µM, Activation Loop): -4.4%
- % Inhibition (SYK; 1µM, Lys1): -13%
- % Inhibition (MAP3K15,MAP3K5,MAP3K6; 0.1µM): 26.2%
- % Inhibition (MAP3K15,MAP3K5,MAP3K6; 1µM): 53.5%
- % Inhibition (DGKA; 0.1µM): 1.4%
- % Inhibition (DGKA; 1µM): -4.5%
- % Inhibition (HPK1; 0.1µM, Lys1): -22.3%
- % Inhibition (HPK1; 0.1µM, Lys2): 1.2%
- % Inhibition (HPK1; 1µM, Lys1): 7.8%
- % Inhibition (HPK1; 1µM, Lys2): 0%
- % Inhibition (PIP4K2A; 0.1µM, peptide AKELPTLKDNDFINEGQK): -3.9%
- % Inhibition (PIP4K2A; 0.1µM, peptide YIIKTITSEDVAEMHNILK): -34.5%
- % Inhibition (PIP4K2A; 1µM, peptide AKELPTLKDNDFINEGQK): -16.3%
- % Inhibition (PIP4K2A; 1µM, peptide YIIKTITSEDVAEMHNILK): -40%
- % Inhibition (Erk2; 0.1µM): 9.1%
- % Inhibition (Erk2; 1µM): 5.3%
- % Inhibition (IRAK1; 0.1µM): -6.1%
- % Inhibition (IRAK1; 1µM): -11.8%
- % Inhibition (NEK6,NEK7; 0.1µM): -2.4%
- % Inhibition (NEK6,NEK7; 1µM): -18.6%
- % Inhibition (TAK1; 0.1µM): -3.5%
- % Inhibition (TAK1; 1µM): -20%
- % Inhibition (ILK; 0.1µM, Lys1): 4.8%
- % Inhibition (ILK; 0.1µM, Protein Kinase Domain): -4%
- % Inhibition (ILK; 1µM, Lys1): 6.2%
- % Inhibition (ILK; 1µM, Protein Kinase Domain): 26%
- % Inhibition (LATS1; 0.1µM, Lys1): 5.2%
- % Inhibition (LATS1; 0.1µM, Lys2): 3.2%
- % Inhibition (LATS1; 1µM, Lys1): 0.9%
- % Inhibition (LATS1; 1µM, Lys2): 0.1%
- % Inhibition (CDK11,CDK8; 0.1µM): -9.1%
- % Inhibition (CDK11,CDK8; 1µM): 9.6%
- % Inhibition (GCK; 0.1µM, Lys1): 7.4%
- % Inhibition (GCK; 0.1µM, Lys2): 6.5%
- % Inhibition (GCK; 1µM, Lys1): 11.4%
- % Inhibition (GCK; 1µM, Lys2): -7.7%
- % Inhibition (MAP3K2; 0.1µM): -14.1%
- % Inhibition (MAP3K2; 1µM): -24.4%
- % Inhibition (LCK; 0.1µM): -11.6%
- % Inhibition (LCK; 1µM): -0.3%
- % Inhibition (FYN,SRC,YES; 0.1µM): -0.7%
- % Inhibition (FYN,SRC,YES; 1µM): 8.2%
- % Inhibition (MST2; 0.1µM): 15.1%
- % Inhibition (MST2; 1µM): 48%
- % Inhibition (NDR1; 0.1µM, Lys1): -16.4%
- % Inhibition (NDR1; 0.1µM, Lys2): 5.8%
- % Inhibition (NDR1; 1µM, Lys1): -6%
- % Inhibition (NDR1; 1µM, Lys2): 1.6%
- % Inhibition (ABL,ARG; 0.1µM, Activation Loop): -15.2%
- % Inhibition (ABL,ARG; 0.1µM, Lys1): -22.4%
- % Inhibition (ABL,ARG; 1µM, Activation Loop): -0.3%
- % Inhibition (ABL,ARG; 1µM, Lys1): 1.3%
- % Inhibition (NEK7; 0.1µM): 2.8%
- % Inhibition (NEK7; 1µM): 11.7%
- % Inhibition (GCN2; 0.1µM, Lys1): 3.5%
- % Inhibition (GCN2; 0.1µM, Lys2): -3.6%
- % Inhibition (GCN2; 1µM, Lys1): -13.3%
- % Inhibition (GCN2; 1µM, Lys2): 2.5%
- % Inhibition (PIP4K2C; 0.1µM, peptide TLVIKEVSSEDIADMHSNLSNYHQYIVK): -22.2%
- % Inhibition (PIP4K2C; 0.1µM, peptide VKELPTLKDMDFLNK): -16.7%
- % Inhibition (PIP4K2C; 1µM, peptide TLVIKEVSSEDIADMHSNLSNYHQYIVK): -14.4%
- % Inhibition (PIP4K2C; 1µM, peptide VKELPTLKDMDFLNK): -2.6%
- % Inhibition (SNRK; 0.1µM, Lys1): 17.1%
- % Inhibition (SNRK; 0.1µM, Lys2): -21.9%
- % Inhibition (SNRK; 1µM, Lys1): -2%
- % Inhibition (SNRK; 1µM, Lys2): -18.7%
- % Inhibition (smMLCK; 0.1µM, Lys1): 1.5%
- % Inhibition (smMLCK; 0.1µM, Lys2): -14.6%
- % Inhibition (smMLCK; 1µM, Lys1): -16.9%
- % Inhibition (smMLCK; 1µM, Lys2): 3.3%
- % Inhibition (MST1; 0.1µM): 16.8%
- % Inhibition (MST1; 1µM): 34.1%

— publication PMC5578959, “Selective LRRK2 kinase inhibition reduces phosphorylation of endogenous Rab10 and Rab12 in human peripheral mononuclear blood cells” (Scientific Reports, 2017)
